Like-named read-outs stand apart in the source and are kept apart here.
Assays:
Format in all cases: in vivo
[1] = system: silverleaf whitefly (Bemisia argentifolii); test: Test G: systemic control of silverleaf whitefly, drip irrigation of tomato plant in greenhouse
Protocol: For evaluating systemic control of silverleaf whitefly (Bemisia argentifolii), each test unit consisted of a 10-inch (25.4 cm) pot with sand, and a tomato plant (var. Tiny Tim) at the 5 to 10 true leaf stage. Oxamyl was in the liquid formulation as Vydate® L and compound 1 was in a wettable powder formulation with 50% active ingredient. Test compounds in approximately 200 mL of water per pot were applied by drip irrigation in the greenhouse. Whitefly activity was evaluated on a naturally occurring population by removing 5 old leaves with clearly visible nymphs. When there were no leaves with clearly visible nymphs, 5 old leaves were removed at random. Leaves were evaluated for dead and live nymphs. For all tests, analysis was conducted by using Fisher's LSD test for means separation, at p=0.05 (see. K. A. Gomez and A. A. Gomez, “Statistical Procedures for Agricultural Research”, 2nd edition, John Wiley & Sons, New York, 680 pp). Mean comparisons were made within each evaluation date only.

[2] = system: beet armyworm (Spodoptera exigua); test: Test H: systemic control of beet armyworm, drip irrigation of tomato plant, leaf discs, % mortality and % feeding; conditions: mg ai/pot: Oxamyl 100, Compound 1 20, Oxamyl + Compound 1 100 + 20
Protocol: For evaluating systemic control of beet armyworm (Spodoptera exigua), each test unit consisted of a 10-inch (25.4 cm) pot filled with sand and containing a tomato plant (var. Tiny Tim) at the 5 to 10 true leaf stage. Oxamyl was in the liquid formulation as Vydate® L and compound 1 was in a wettable powder formulation with 50% active ingredient. Test compounds in approximately 200 mL of water per pot were applied by drip irrigation in the greenhouse. The plants were sampled at indicated date by cutting discs of the leaf material and placing each disc on a layer of agar gel in a 16-well, 1.5 oz. cup tray (B-150-S 0.028 Natural, Clear Pack Co., Franklin Park, Ill. 60131). One beet armyworm larva was added to each cell and the cells were covered. Trays were held in the growth chamber at 25° C., 16-hour light:8-hour dark, 60% relative humidity for 4 days. The percentage of mortality (abbreviated as % Morta.) and percentage of feeding (abbreviated as % feed), were visually assessed; the results are listed in Table 9. For all tests, analysis was conducted by using the LSD test. Mean comparisons were made within each evaluation date only.

[3] = system: cabbage looper (Trichoplusia ni); test: Test J: foliar control of cabbage looper, sprayed cabbage leaves, % mortality and % feeding; conditions: for mortality at […]: Trichoplusia ni, foliar, read-out: % mortality (observed)
Protocol: For evaluating control of beet armyworm (Spodoptera exigua), methomyl was in the liquid formulation as Lannate® LV (29% of active ingredient). Compound 1 was in a water dispersible granules (WDG) formulation with 35% active ingredient. The test compounds were dissolved in water. Enough water was added to make 100 ppm of active ingredient for each compound. Serial dilutions were made to obtain the appropriate concentrations. To obtain the desired mixture concentrations of each compound, twice the desired concentration of each of the two mixture partner compounds were mixed together in equal volumes.
The diluted solutions of the test compounds were sprayed to run-off on three-week-old tomato plants. The plants were placed on a rotating turntable sprayer (10 rpm). Test solutions were applied using a flat fan air-assisted nozzle (Spraying Systems 122440) at 10 psi (69 kPa). After each treated plant had dried, leaves were excised from the treated plant. The leaves were cut into pieces, which were placed singly into 5.5 cm-by-3.5 cm cells of a sixteen-cell plastic tray. Each cell contained a 2.5-cm square of moistened chromatography paper to prevent desiccation. One insect was placed in each cell. There two trays per treatment. Trays were held in the growth chamber at 25° C., 16-hour light:8-hour dark, 60% relative humidity for 4 days.
For evaluating foliar control of cabbage looper (Trichoplusia ni), cabbage (var. Stonehead) plants were grown in Metromix potting soil in 10-cm pots in aluminum trays to test size (28 days, 3-4 full leaves). Test compounds were formulated and sprayed on test plants as described for Test I. After drying for 2 hours, the treated leaves were excised and infested with one cabbage looper per cell and covered. The test units were placed on trays and put in a growth chamber at 25° C. and 60% relative humidity for 4 days.

[4] = system: diamondback moth (Plutella xylostella); test: whole plant or invertebrate
Procedure, shortened: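 Aqueous compound dilutions sprayed to run-off on 28-day cabbage plants (3-4 leaves) via turntable sprayer. After 2 h drying, excised leaves were infested, one larva per cell, and held at 25° C and 60% relative humidity for 4 days.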

[5] = Day 6, mg ai/pot: Oxamyl 100, Compound 1 20, Oxamyl + Compound 1 100 + 20
[6] = Day 13, mg ai/pot: Oxamyl 100, Compound 1 20, Oxamyl + Compound 1 100 + 20
[7] = Day 20, mg ai/pot: Oxamyl 100, Compound 1 20, Oxamyl + Compound 1 100 + 20
[8] = Day 13 - old growth (first of two heads so printed, c4)
[9] = Day 13 - old growth (first of two heads so printed, c5)
[10] = Day 13 - old growth (second of two heads so printed, c6)
[11] = Day 13 - old growth (second of two heads so printed, c7)

SMILES	% Mortality [1, 5] [%]	Nymphs number [1, 5]	% Mortality [1, 6] [%]	Nymphs number [1, 6]	% Mortality [1, 7] [%]	Nymphs number [1, 7]	% Morta. ([2]; Day 6 new & old) [%]	% feed ([2]; Day 6 new & old) [%]	% Morta. [2, 8] [%]	% feed [2, 9] [%]	% Morta. [2, 10] [%]	% feed [2, 11] [%]	% Morta. ([2]; Day 20 - new growth) [%]	% feed ([2]; Day 20 - new growth) [%]	% Morta. ([2]; Day 20 - old growth) [%]	% feed ([2]; Day 20 - old growth) [%]	further results
CNC(=O)O/N=C(\SC)C(=O)N(C)C [Oxamyl]	6	380	34	506	28	404	26	49	35	43	40	40	25	92	31	65	–
CNC(=O)c1cc(Cl)cc(C)c1NC(=O)c1cc(Br)nn1-c1ncccc1Cl [Compound 1, 3-bromo-N-[4-chloro-2-methyl-6-[(methylamino)carbonyl]phenyl]-1-(3-chloro-2-pyridinyl)-1H-pyrazole-5-carboxamide]	44	316	99	194	100	300	99	0	100	0	97	0	100	0	100	0	mortality at […] ([3]; Compound 1 0.032 ppm): 9%; mortality at […] ([3]; Compound 1 0.057 ppm): 22%; % feeding ([4]; Compound 1 0.007 ppm): 10.0%; % feeding ([4]; Compound 1 0.030 ppm): 0%; mortality at 0.007 ppm ([4]; Plutella xylostella, in Brassica oleracea, Compound 1 0.007 ppm, read-out: % mortality (observed)): 13%; mortality at […] ([4]; Plutella xylostella, in Brassica oleracea, Compound 1 0.013 ppm, read-out: % mortality (observed)): 34%; mortality at 0.03 ppm ([4]; Plutella xylostella, in Brassica oleracea, Compound 1 0.030 ppm, read-out: % mortality (observed)): 78%; mortality at 0.01 ppm ([4]; Plutella xylostella, in Brassica oleracea, rate 0.01 ppm, read-out: % mortality (obs)): 87%; mortality at 0.02 ppm ([4]; Plutella xylostella, in Brassica oleracea, rate 0.02 ppm, read-out: % mortality (obs)): 77%; mortality at 0.04 ppm ([4]; Plutella xylostella, in Brassica oleracea, rate 0.04 ppm, read-out: % mortality (obs)): 93%
COC(=O)N(C(=O)N1CO[C@@]2(C(=O)OC)Cc3cc(Cl)ccc3C2=N1)c1ccc(OC(F)(F)F)cc1 [Indoxacarb]	–	–	–	–	–	–	–	–	–	–	–	–	–	–	–	–	% feeding ([3]; Indoxacarb 0.146 ppm): 68%; % mortality (observed) ([3]; Indoxacarb 0.146 ppm): 31%; % feeding ([4]; Indoxacarb 0.147 ppm): 13.8%; % mortality (observed) ([4]; Indoxacarb 0.147 ppm): 33%; % feeding ([4]; Indoxacarb 0.226 ppm): 3.5%; % mortality (observed) ([4]; Indoxacarb 0.226 ppm): 25%; % feeding ([4]; Indoxacarb 0.340 ppm): 0.5%; % mortality (observed) ([4]; Indoxacarb 0.340 ppm): 47%; % feeding ([4]; Indoxacarb 1 ppm): 0.1%; % mortality (observed) ([4]; Indoxacarb 1 ppm): 50%

From patent US8937089B2, “Synergistic mixtures of anthranilamide invertebrate pest control agents” (priority 2004, dated 2015)
